Experimental data: ChEMBL document CHEMBL5244206, “Recent encounters with atropisomerism in drug discovery” (Bioorg Med Chem Lett, 2018)

Molecular target: ALK tyrosine kinase receptor (Homo sapiens, UniProt Q9UM73, L1196M)
Assay: Binding affinity to human recombinant ALK L1196M mutant (1093 to 1411 residues) assessed as inhibition constant using 5'FAM-KKSRGDYMTMQIG-CONH2 peptide as substrate in presence of ATP by micro-fluidic mobility shift assay

Sequence of ALK tyrosine kinase receptor (Q9UM73 19-1620 L1196M limits assumed): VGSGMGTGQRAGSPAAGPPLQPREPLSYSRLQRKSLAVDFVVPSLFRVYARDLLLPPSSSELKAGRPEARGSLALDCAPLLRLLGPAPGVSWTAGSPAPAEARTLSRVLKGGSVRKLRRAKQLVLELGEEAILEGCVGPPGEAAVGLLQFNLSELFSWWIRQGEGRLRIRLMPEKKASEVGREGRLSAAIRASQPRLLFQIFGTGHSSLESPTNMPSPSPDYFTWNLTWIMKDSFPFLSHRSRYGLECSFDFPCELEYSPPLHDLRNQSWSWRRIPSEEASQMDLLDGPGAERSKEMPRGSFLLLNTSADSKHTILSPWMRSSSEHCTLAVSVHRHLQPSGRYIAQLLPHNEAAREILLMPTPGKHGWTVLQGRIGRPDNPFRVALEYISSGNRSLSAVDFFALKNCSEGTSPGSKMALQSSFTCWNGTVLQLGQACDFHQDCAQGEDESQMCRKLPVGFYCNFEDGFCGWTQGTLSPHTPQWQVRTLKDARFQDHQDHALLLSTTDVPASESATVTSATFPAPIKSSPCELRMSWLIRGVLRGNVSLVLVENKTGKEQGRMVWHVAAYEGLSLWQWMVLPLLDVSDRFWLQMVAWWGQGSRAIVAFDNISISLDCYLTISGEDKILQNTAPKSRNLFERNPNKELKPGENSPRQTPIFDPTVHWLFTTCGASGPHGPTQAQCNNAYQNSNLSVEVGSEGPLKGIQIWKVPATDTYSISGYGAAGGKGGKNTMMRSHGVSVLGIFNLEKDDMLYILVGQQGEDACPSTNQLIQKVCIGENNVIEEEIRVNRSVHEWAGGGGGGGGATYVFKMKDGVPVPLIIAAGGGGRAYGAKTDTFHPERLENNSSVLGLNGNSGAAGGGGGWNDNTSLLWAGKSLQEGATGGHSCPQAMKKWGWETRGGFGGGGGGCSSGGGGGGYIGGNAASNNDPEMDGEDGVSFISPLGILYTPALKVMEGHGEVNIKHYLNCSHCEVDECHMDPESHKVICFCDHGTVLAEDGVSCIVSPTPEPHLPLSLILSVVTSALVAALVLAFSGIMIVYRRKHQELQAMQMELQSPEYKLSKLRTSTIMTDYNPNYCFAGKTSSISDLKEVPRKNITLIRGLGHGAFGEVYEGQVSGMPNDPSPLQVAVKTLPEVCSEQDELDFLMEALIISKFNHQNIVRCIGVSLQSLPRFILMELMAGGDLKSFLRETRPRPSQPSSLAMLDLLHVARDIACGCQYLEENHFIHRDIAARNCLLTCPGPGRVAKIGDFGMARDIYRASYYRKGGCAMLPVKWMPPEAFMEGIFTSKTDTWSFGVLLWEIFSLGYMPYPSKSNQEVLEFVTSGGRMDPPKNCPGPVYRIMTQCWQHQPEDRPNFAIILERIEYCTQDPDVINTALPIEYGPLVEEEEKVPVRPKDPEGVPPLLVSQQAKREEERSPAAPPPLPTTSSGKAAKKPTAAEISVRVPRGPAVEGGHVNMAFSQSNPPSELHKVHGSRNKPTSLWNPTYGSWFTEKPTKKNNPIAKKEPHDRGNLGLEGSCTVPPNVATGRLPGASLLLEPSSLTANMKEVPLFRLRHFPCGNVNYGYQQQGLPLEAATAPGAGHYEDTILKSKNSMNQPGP

Molecule CN1Cc2nn(C)c(C#N)c2-c2cnc(N)c(c2)OCc2cc(F)ccc2C1=O has a Ki of 273 nM.
